Structures are written as SMILES. Converted amounts (≈) assume the structure as drawn.

For the series the following is noted: buffer; pH 7.4; 200.0 µM.
Usually kinetic solubility stands for solubility judged after dilution from a stock solution rather than from solid. In the case of `COc1ccc(-c2cn3ccccc3n2)cc1`, the kinetic solubility was over 33.6 µg/mL. The same measure for `NC(=O)CN(Cc1ccccc1)S(=O)(=O)c1ccc2c(c1)OCCO2`: over 54.4 µg/mL. The result for `COC(=O)c1sccc1NC(=O)c1ccc(C#N)cc1` reads 1.8 µg/mL (≈ 6.29 µM); that for `CCc1c(C)nc(SCc2cccnc2)[nH]c1=O`, over 39.2 µg/mL; that for `O=C1NC2(CCCCC2)N(C(=O)c2ccccc2)C2=C1CCCC2`, 8.1 µg/mL (≈ 25 µM). The result for `Cc1cc(C)c(S(=O)(=O)c2cccc(Cl)c2)c(=O)[nH]1` reads over 44.7 µg/mL; that for `O=S(=O)(c1ccc(NCc2ccc(F)cc2)nc1)N1CCCC1`, 3 µg/mL (≈ 8.94 µM). On to `C[C@]12C=CC(=O)C=C1CC[C@@H]1C2=CC[C@]2(C)[C@@H](C(=O)CN3CCN(c4cc(N5CCCC5)nc(N5CCCC5)n4)CC3)CC[C@@H]12.O=C(O)/C=C\C(=O)O`, for which the kinetic solubility amounted to 48.2 µg/mL. The result for `O=c1[nH]c(CSc2ccccc2)nc2c1oc1ccccc12` reads 2.2 µg/mL (≈ 7.13 µM). The result for `O=C(Nc1ccc([N+](=O)[O-])cc1)N1CCCCCC1` reads over 39.5 µg/mL; that for `CC(=O)Oc1ccc2c(=O)c(/C=N/c3cc(=O)[nH]c(=S)[nH]3)coc2c1`, 30.6 µg/mL (≈ 85.6 µM); that for `CCOC(=O)C1=C(C)NC(C)=C(C(=O)OCC)C1C(=O)OCC(=O)NCc1ccc(F)cc1`, over 69.4 µg/mL. The result for `CCCNC(=O)c1ccccc1SCc1c(C)noc1C` reads over 45.7 µg/mL; that for `Cc1nc([N+](=O)[O-])cn1CC(O)c1ccc(Cl)cc1` (configuration not stated), over 42.3 µg/mL. Molecule `COc1ccc(-n2c(-c3ccc(Cl)cc3)c[nH]c2=S)cc1` gave a solubility (kinetic) of 1.5 µg/mL (≈ 4.73 µM).

For the molecule `CCCCn1c(N)c(N(CCOC)C(=O)CSc2nnc(-c3ccco3)n2CC)c(=O)[nH]c1=O`, the solubility (kinetic) was over 73.7 µg/mL.

`O=C1N=C(N2CCN(c3ccccc3)CC2)S/C1=C/c1ccco1` gave a solubility (kinetic) of 17.4 µg/mL (≈ 51.3 µM). The result for `Cl.c1ccc2c3c(c(CN4CCCCC4)cc2c1)COC3` reads over 45.6 µg/mL; that for `COc1cccc(CNC(=O)CCCc2c[nH]c3ccccc23)c1`, 47 µg/mL (≈ 146 µM); that for `COc1ccccc1-c1c(C#N)c(N)nc2c1CCC2`, 5 µg/mL (≈ 18.8 µM).

In turn, `COc1ccccc1CNC(=O)CCc1ccccc1` yielded a solubility (kinetic) of over 40.4 µg/mL. The result for `C=CCSc1nc2sc3c(c2c(=O)n1CC)CCc1ccccc1-3` reads over 53.2 µg/mL.

The molecule `Nc1nc(COc2ccc(F)cc2Cl)nc(N2CCCCC2)n1` came in with a kinetic solubility of 3.4 µg/mL (≈ 10.1 µM). Molecule `CCOC(=O)c1[nH]cnc1C(=O)Nc1ccc(F)cc1` displayed a kinetic solubility of 6.7 µg/mL (≈ 24.2 µM). This solubility kinetic lies about 2-fold higher than the previous one.

Take `CCC(C)c1ccc(NC(=S)N2CCCC2)cc1` (configuration not stated): the solubility (kinetic) was over 39.4 µg/mL. `CN(C)c1ccc(CNc2ncnc3sccc23)cc1` came in with a kinetic solubility of 29.7 µg/mL (≈ 104 µM).

`O=c1[nH]cc(-c2ccc(Br)cc2)n1Cc1ccccc1` showed a solubility (kinetic) of 1.6 µg/mL (≈ 4.86 µM). The result for `Cc1cc(S(=O)(=O)Cc2noc(-c3c(C)noc3C)n2)c(C)cc1Cl` reads under 0.3 µg/mL; that for `COc1ccc(CNC(=O)c2cc(C(C)=O)c[nH]2)cc1`, 12.9 µg/mL (≈ 47.4 µM); that for `CC(C)(C)NC(=S)Nc1cccc(C(F)(F)F)c1`, 17.1 µg/mL (≈ 61.9 µM). The same measure for `NC(=O)c1ccc(C2SCC(=O)N2CCc2ccccc2)cc1` (configuration not stated): over 49 µg/mL. The result for `COc1ccccc1OCC(=O)Nc1nc(C)c(C)s1` reads over 43.9 µg/mL; that for `N#Cc1c(C(F)(F)F)cc(Cc2ccccc2)nc1SCC(=O)NCC(=O)O`, over 61.4 µg/mL; that for `COc1ccc(CCNC(=O)CCc2ccccc2)cc1OC`, over 47 µg/mL.

Take `O=C1NC(=Nc2ccc(O)cc2)S/C1=C\C=C\c1ccco1`: the solubility (kinetic) came to 4.7 µg/mL (≈ 15 µM).

The molecule `O=C(NC1CCNCC1)C1CCCCC1` gave a solubility (kinetic) of over 31.5 µg/mL.

Regarding `COc1ccc(OC)c(N=Cc2c(O)[nH]c(=O)[nH]c2=O)c1`, the solubility (kinetic) came out at 7.1 µg/mL (≈ 24.4 µM). On to `O=C(NCc1ccco1)c1cc([N+](=O)[O-])ccc1N1CCOCC1`, for which the kinetic solubility turned out to be 46.4 µg/mL (≈ 140 µM). The same measure for `COc1ccc(OC)c2nc(-c3ccncc3)ccc12`: over 39.9 µg/mL; for `CCOc1ncccc1C(=O)OCC(=O)NCc1cccs1`: over 48.1 µg/mL; for `Cc1c(NC(=O)c2ccc(S(=O)(=O)Nc3ccccc3F)cc2)c(=O)n(-c2ccccc2)n1C`: over 72.1 µg/mL.

`COC(=O)c1ccccc1NC(=O)c1ccc[nH+]c1.[Cl-]` gave a kinetic solubility of over 43.9 µg/mL. The result for `COCCN(C(=S)Nc1ccccc1C)C(C)c1ccco1` (configuration not stated) reads 45.7 µg/mL (≈ 144 µM). `COC(=O)Cn1cc([N+](=O)[O-])nc1C` gave a solubility (kinetic) of over 29.9 µg/mL. The same measure for `CCCCCC(=O)Nc1ccc(-c2csc(N)n2)cc1`: 5.9 µg/mL (≈ 20.4 µM); for `CC(C)C[C@H](NC(=O)NC1CCCc2ccccc21)C(=O)O` (some centres not stated): over 45.7 µg/mL.

The molecule `COc1ccc(CCOC(=O)c2ccc(N)c([N+](=O)[O-])c2)cc1` had a kinetic solubility of 1.1 µg/mL (≈ 3.48 µM).

Molecule `CC1CC1C(=O)OCC(=O)Nc1cccc(F)c1` (configuration not stated) registered a solubility (kinetic) of over 37.7 µg/mL. Turning to `CCNc1nc(OC)nc(N(OC)S(=O)(=O)c2ccc(C)cc2)n1`, the kinetic solubility is over 53 µg/mL.

`CCN(CC)c1nc(N)n(CCSC(=S)N(C)C)c(=O)n1`: the kinetic solubility worked out at 45.1 µg/mL (≈ 136 µM). The result for `Cc1ccnc(NC(=O)c2cc3ccccc3o2)c1` reads 12.9 µg/mL (≈ 51.1 µM).

`CCOC(=O)N1CCN(C(=O)c2ccc(S(=O)(=O)Nc3ccccc3)cc2)CC1` had a kinetic solubility of over 62.6 µg/mL.

For `Cc1occc1C(=O)O/N=C(\N)c1ccc(Cl)cc1`, the kinetic solubility was determined as 9.1 µg/mL (≈ 32.7 µM). The result for `COc1ccc(NC(=O)c2ccc3ccccc3c2OC)cc1` reads under 0.7 µg/mL; that for `Cc1ccc(S(=O)(=O)N(C)C)cc1NC(=O)C(C)OC(=O)C1CCCCC1` (configuration not stated), over 59.5 µg/mL; that for `O=c1c2ccccc2[nH]c(=S)n1-c1cccnc1`, 7.6 µg/mL (≈ 29.8 µM). The result for `COC(=O)C1=C(C)NC(=O)NC1c1c(O)ccc2ccccc12` (configuration not stated) reads 15.2 µg/mL (≈ 48.7 µM); that for `O=C1Nc2ccccc2O/C1=C\c1c(F)cccc1Cl`, 0.7 µg/mL (≈ 2.42 µM); that for `O=C(COC(=O)c1ccccc1O)NCCCc1ccccc1`, 5 µg/mL (≈ 16 µM).

Consider `Cc1ccsc1C(=O)OCC(=O)N1CCN(c2ccccc2)CC1`, for which the solubility (kinetic) was over 51.7 µg/mL. The result for `COc1ccc(C)cc1NC(=O)CC(NC(C)=O)c1ccccc1` (configuration not stated) reads over 49 µg/mL; that for `Cc1cc2c(cc1C)N(Cc1ccc(Cl)cc1)C1=NCCCN12`, over 48.9 µg/mL; that for `CC1CCN(C(=O)COC(=O)Cn2cnc3ccccc32)CC1`, over 47.3 µg/mL. The result for `COc1ccc(-n2c(-c3ccccc3)c[n+]3c2CCC3)cc1.[Br-]` reads over 55.7 µg/mL; that for `Cc1ccc(NCc2nc3ccccc3n2C)cc1C`, 22.1 µg/mL (≈ 83.3 µM); that for `CCN(c1cccc(C)c1)S(=O)(=O)c1ccc(OC)c([N+](=O)[O-])c1`, under 0.4 µg/mL. The same measure for `COc1ccc(Cl)cc1NC(=S)NCCc1ccc(F)cc1`: 13.7 µg/mL (≈ 40.4 µM); for `CCCOc1ccc(/C=C2\SC(N)=NC2=O)cc1OC`: 2.5 µg/mL (≈ 8.55 µM). In the case of `COc1cc(/C=C(/C#N)C(=O)NCc2ccccc2)cc(OC)c1OC`, the solubility (kinetic) came out at 20 µg/mL (≈ 56.8 µM). Against the preceding molecule, the solubility kinetic is about 8-fold higher. The result for `Cc1c(C(=O)N2C[C@@H](C)O[C@@H](C)C2)oc2c(F)cccc12` reads over 43.7 µg/mL; that for `CCN(CC(=O)Nc1cccc(OC)c1)C(=O)c1ccncc1`, 37.2 µg/mL (≈ 119 µM). The same measure for `O=c1[nH]c2ccccc2c(O)c1-[n+]1ccccc1.[Cl-]`: 40.5 µg/mL. The same measure for `COc1ccc(CNC(=O)c2sccc2-c2ccccc2)cc1OC`: 33.7 µg/mL (≈ 95.3 µM); for `COc1ccccc1OC(=O)Nc1ccc(Cl)cc1`: 17.8 µg/mL (≈ 64.1 µM); for `Cc1ccc(C)c(OCCC(=O)OCC(=O)NC2CCCC2)c1`: 43.5 µg/mL (≈ 136 µM). In the case of `O=C(c1cccnc1)c1ncc(C(F)(F)F)cc1Cl`, the solubility (kinetic) was determined as 35.7 µg/mL (≈ 125 µM). The same measure for `CCOC(=O)c1c(O)c(O)c(C(=O)OCC)n1-c1ccccc1`: over 47.9 µg/mL; for `COc1ccc(C(=O)Nc2ccc(C3(C#N)CCCC3)cc2)cc1OC`: under 0.4 µg/mL. The result for `COc1ccc(Cl)cc1C(=O)OCC(=O)c1ccc[nH]1` reads 8.4 µg/mL (≈ 28.6 µM); that for `O=C(O)CNC(=S)N(Cc1ccccc1)Cc1cccs1`, over 48.1 µg/mL; that for `O=C(NCc1cccnc1)Nc1ccc([N+](=O)[O-])cc1`, over 40.8 µg/mL. The result for `CC1CCCC(C)N1C(=S)SCC(=O)O` (configuration not stated) reads over 37.1 µg/mL. `COCCn1cc(-c2csc(N)n2)c2ccccc21` had a solubility (kinetic) of 35.1 µg/mL (≈ 128 µM). The result for `COC(=O)c1sc(-c2ccccc2)cc1NC(=O)C1CC1` reads 0.7 µg/mL (≈ 2.32 µM); that for `COC(=O)c1cc(OC)c(OC)c(OC)c1[N+](=O)[O-]`, 38.5 µg/mL (≈ 142 µM); that for `C=CCNC(=O)N[C@@H](Cc1ccccc1)C(=O)OC`, over 39.3 µg/mL.

As for `CC(=O)c1c(N2CCOCC2)nc2ccc(Cl)cc2c1-c1ccccc1`, the solubility (kinetic) was determined as 1.8 µg/mL (≈ 4.91 µM). The same measure for `O=C(CCc1ccc(S(=O)(=O)N2CCOCC2)cc1)Nc1c(F)cccc1F`: over 61.6 µg/mL; for `CC1(C)CC(=O)C(=CN2CCOCC2)C(=O)C1`: over 35.6 µg/mL. `CCOc1c(N2CCOCC2)c(=O)c1=O` yielded a solubility (kinetic) of over 31.7 µg/mL. The result for `O=C(COC(=O)/C=C/c1ccco1)NC1CCCCC1` reads 16.3 µg/mL (≈ 58.8 µM); that for `COCCNc1nc(C)c(C(C)=O)s1`, 25.7 µg/mL (≈ 120 µM); that for `O=C(Cc1ccc(F)cc1)NC(Cc1c[nH]c2ccccc12)C(=O)O` (configuration not stated), 46.6 µg/mL (≈ 137 µM). For `O=C(NCCCn1ccnc1)c1ccccc1Br`, the solubility (kinetic) is over 46.2 µg/mL. The result for `COc1ccc(/C=C/C(=O)O)cc1S(=O)(=O)NCc1ccco1` reads 48.8 µg/mL (≈ 145 µM). The result for `Cc1ccc(NC(=O)Nc2ccc3c(c2)OCO3)cc1F` reads under 0.3 µg/mL. As to `COc1cc(/C=C/C(=O)O)cc(S(=O)(=O)NCC2CCCO2)c1OC` (configuration not stated), the solubility (kinetic) was found to be 53.3 µg/mL (≈ 144 µM).

Consider `CC(=O)N1CCN(c2ccc(NC(=O)c3ccc(F)cc3)cc2)CC1`, for which the kinetic solubility was 10.6 µg/mL (≈ 31 µM).

The molecule `Cc1ccc(-c2cc(C(=O)N3CC4(C)CC3CC(C)(C)C4)no2)cc1` (configuration not stated) had a kinetic solubility of under 0.4 µg/mL. The same measure for `NS(=O)(=O)c1ccc(NC(=O)CN2CCc3ccccc32)cc1`: 23.6 µg/mL (≈ 71.2 µM).

The molecule `CCNC(=S)Nc1ccc2c(c1)oc1ccccc12` showed a solubility (kinetic) of 1.7 µg/mL (≈ 6.29 µM). This solubility kinetic is about 14-fold lower than that of the molecule before. The same measure for `O=C(COc1ccccc1F)Nc1ccc2[nH]c(=O)[nH]c2c1`: 4.5 µg/mL (≈ 14.9 µM).

Values taken from PubChem BioAssay AID1996.
